Where a name gives a salt, the structure may show the parent alone. Read-outs that look alike come from different tables or passages of the source.
Experiments:
β-lactamase = molecular target: T1, β-lactamase (Citrobacter freundii, UniProt P05193); assay: biochemical
T1 construct: Various β-lactamases can be isolated from penicillin- or cephalosporin-resistant bacterial strains such as; endogenous in cells; host or cells: Citrobacter freundii 1203 (enzyme purified from the crude cell extract, after ampicillin induction when necessary)
T1 sequence (P05193 21-381): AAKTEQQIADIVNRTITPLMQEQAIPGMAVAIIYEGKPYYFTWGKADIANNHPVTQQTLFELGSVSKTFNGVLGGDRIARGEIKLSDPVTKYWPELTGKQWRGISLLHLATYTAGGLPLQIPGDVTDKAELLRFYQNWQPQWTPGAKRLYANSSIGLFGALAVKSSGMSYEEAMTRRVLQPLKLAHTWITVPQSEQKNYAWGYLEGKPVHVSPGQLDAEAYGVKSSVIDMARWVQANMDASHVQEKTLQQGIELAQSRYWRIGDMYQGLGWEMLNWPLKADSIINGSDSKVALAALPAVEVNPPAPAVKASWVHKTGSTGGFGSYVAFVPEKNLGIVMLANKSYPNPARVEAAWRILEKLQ
Protocol: A. Isolation of the β-lactamases
Various β-lactamases can be isolated from penicillin- or cephalosporin-resistant bacterial strains such as Klebsiella pneumoniae NCTC 418, Proteus vulgaris 1028, Bacillus licheniformis 749/C, Escherichia coli SN01 and Citrobacter freundii 1203. For this purpose, the corresponding strains are cultivated in Tryptic Soy Broth (Difco) and harvested by centrifugation in the last logarithmic growth phase (when necessary 50-100 mg/l of ampicillin are added to the medium towards the end of the log-phase in order to induce the β-lactamase). The thus-obtained bacterial mass is treated with 20 mM Tris-HCl buffer (pH 7.0); the cells are broken open with a French press while cooling. The mixture is centrifuged (20,000 r/min.) for 20-30 minutes and a clear crude extract is obtained.
B. Determination of the β-lactamase activity
The determination of the activity of the isolated β-lactamases can be carried out according to the method of O'Callaghan, C. H. et al. [Antimicr. Ag. Chemother., 1, 283-288 (1972)] using the chromogenic cephalosporin nitrocefin (87/312 from Glaxo). The requisite test batch contains per ml of water: 50 mM phosphate buffer (pH 7.0), 0.1 mM nitrocefin and sufficient enzyme (β-lactamase) to achieve a ΔA/min. of about 0.1. The cleavage of the substrate, which is accompanied by a change in colour, is effected at 37° C. and is followed quantitatively at 482 nm using a spectral photometer.
C. Determination of the β-lactamase-inhibiting activity of the compounds of general formula I
The above-described cleavage of the chromogenic substrate by β-lactamases (test B.) can be inhibited by the addition of compounds of general formula I (inhibitors). […] As a measurement for the affinity of the particular tested inhibitor to the β-lactamase, which is a measurement of the strength of the inhibitor, there serves that concentration which inhibits by 50% (IC 50 in nM) the cleavage of the substrate (nitrocefin) effected under the above test conditions (test B) in the absence of an inhibitor. […] The determination of the IC50 was effected by means of a graph.
(Test organism: Citrobacter freundii)

Citrobacter freundii = assay: MIC in vitro of a 1:4 combination of ceftriaxone with a compound of formula I (test D); format: cell-based; details: 1:4 combination of ceftriaxone with the compound
Protocol: D. Determination of the β-lactamase-inhibiting activity by combination of a compound of general formula I with ceftriaxone
The minimum inhibitory concentration in vitro (MIC in μg/ml) of a 1:4 combination of ceftriaxone with a compound of formula I against Citrobacter freundii is measured and compiled in Table 2 hereinafter.

[1] = IC 50 nM, isolated β-lactamase of Citrobacter freundii, substrate nitrocefin 0.1 mM, 15 minutes pre-incubation with inhibitor, 37° C., pH 7.0
[2] = isolated β-lactamase of Citrobacter freundii, substrate nitrocefin 0.1 mM, 15 minutes pre-incubation with inhibitor, 37° C., pH 7.0, read-out: IC 50 nM

Cn1nnnc1CNC(=O)N1CC[C@@H]2[C@H]1C(=O)N2S(=O)(=O)[O-].[Na+] [17(z), (1S,5R) -2-[1-Methyl-1H-tetrazol-5-ylmethylcarbamoyl]-7-oxo-2,6-diazabicyclo[3.2.0]heptane-6-sulfonic acid sodium salt] was tested, and the IC50 (β-lactamase; [1]) was 98 nM and the “MIC” value (Citrobacter freundii) was 1 µg/mL.
For O=C(NCC1CCCCC1)N1CC[C@@H]2[C@H]1C(=O)N2S(=O)(=O)[O-].[Na+] [17(m), (1S,5R)-2-Cyclohexylmethylcarbamoyl-7-oxo-2,6-diazabicyclo[3.2.0]heptane-6-sulphonic acid sodium salt], the IC50 (β-lactamase; [1]) was 359 nM and the “MIC” value (Citrobacter freundii) was 16 µg/mL.
For Cn1cnnc1SCC(=O)N1CC[C@@H]2[C@H]1C(=O)N2S(=O)(=O)[O-].[Na+] [23(b), (1S,5R)-2-(4-Methyl-4H-1,2,4-triazol-3-ylsulfanylacetyl)-7-oxo-2,6-diazabicyclo[3.2.0]heptane-6-sulfonic acid sodium salt], the IC50 (β-lactamase; [1]) was 50 nM and the “MIC” value (Citrobacter freundii) was 0.5 µg/mL.
For Cc1cc(=O)oc2cc(OCC(=O)N3CC[C@@H]4[C@H]3C(=O)N4S(=O)(=O)[O-])ccc12.[Na+] [23(a), (1S,5R)-2-(4-Methyl-2-oxo-2H-benzopyran-7-yloxyacetyl)-7-oxo-2,6-diazabicyclo[3.2.0]heptane-6-sulfonic acid sodium salt], the IC50 (β-lactamase; [1]) was 97 nM and the “MIC” value (Citrobacter freundii) was 16 µg/mL.
O=C(O)C(C(=O)N1CC[C@@H]2[C@H]1C(=O)N2S(=O)(=O)O)c1ccsc1 (mixture of isomers) [6(e), (R/S)-α-(1S,5R)-2-[2-carboxy-2-(3-thienyl)acetyl]-7-oxo-2,6-diazabicyclo[3.2.0]heptane-6-sulphonic acid triethylamine salt (1:1)] was tested, and the IC50 (β-lactamase) was 465 nM and the “MIC” value (Citrobacter freundii) was 4 µg/mL.
O=C(OCc1ccccc1)N1CC[C@@H]2[C@H]1C(=O)N2S(=O)(=O)O [Example 1(a), Benzyl (1S,5)-7-oxo-6-sulpho-2,6-diazabicyclo[3.2.0]heptane 2-carboxylate sodium salt] was tested, and the IC50 (β-lactamase) was 100 nM and the “MIC” value (Citrobacter freundii) was 8 µg/mL.
In the case of O=C(NCc1nc(C2CC2)no1)N1CC[C@@H]2[C@H]1C(=O)N2S(=O)(=O)[O-].[Na+] [17(af), (1S,5R)-2-(3-Cyclopropyl-1,2,4-oxadiazol-5-ylmethylcarbamoyl)-7-oxo-2,6-diazabicyclo[3.2.0]heptane-6-sulfonic acid sodium salt], the IC50 (β-lactamase; [1]) is reported as 107 nM and the “MIC” value (Citrobacter freundii) is reported as 1 µg/mL.
With Nc1cccc(NCC(=O)N2CC[C@@H]3[C@H]2C(=O)N3S(=O)(=O)O)c1 [5(i), (1S,5R)-2-[N-(m-Aminophenyl)glycyl] -7-oxo-2,6-diazabicyclo[3.2.0]heptane-6-sulphonic acid] the IC50 (β-lactamase) was 115 nM and the “MIC” value (Citrobacter freundii) was 2 µg/mL.
With O=C(CNc1ccc(O)cc1)N1CC[C@@H]2[C@H]1C(=O)N2S(=O)(=O)[O-].[Na+] [6(v), (1S,5R)-2-(4-Hydroxy-phenylaminoacetyl)-7-oxo-2,6-diazabicyclo[3.2.0]heptane-6-sulfonic acid sodium salt] the IC50 (β-lactamase; [1]) was 3.5 nM and the “MIC” value (Citrobacter freundii) was 8 µg/mL.
With O=C(/C=C/c1c[nH]cn1)N1CC[C@@H]2[C@H]1C(=O)N2S(=O)(=O)[O-].[Na+] [8(d), (1S,5R)-2-[(E)-3-(4-Imidazolyl)acryloyl]-7-oxo-2,6-diazabicyclo[3.2.0]heptane-6-sulphonic acid sodium salt] the IC50 (β-lactamase; [1]) was 34 nM and the “MIC” value (Citrobacter freundii) was 0.5 µg/mL.
With CC(=O)Oc1ccc(/C=C/C(=O)N2CC[C@@H]3[C@H]2C(=O)N3S(=O)(=O)[O-])cc1OC(C)=O.[Na+] [Example 13, 4-[(E)-2-[[(1S,5R)-7-Oxo-6-sulpho-2,6-diazabicyclo[3.2.0]heptan-2-yl]carbonyl]vinyl]-o-phenylene diacetate sodium salt] the IC50 (β-lactamase; [1]) was 63 nM and the “MIC” value (Citrobacter freundii) was 4 µg/mL.
O=C(NCC1CCCO1)N1CC[C@@H]2[C@H]1C(=O)N2S(=O)(=O)[O-].[Na+] (mixture of isomers) [17(y), (1S,5R)-2-[(R) and (S)-Tetrahydrofuran-2-ylmethylcarbamoyl]-7-oxo-2,6-diaza-bicyclo[3.2.0]heptane-6-sulfonic acid sodium salt] was tested, and the IC50 (β-lactamase; [1]) was 238 nM and the “MIC” value (Citrobacter freundii) was 1 µg/mL.
In the case of O=C(/C=C/c1cccs1)N1CC[C@@H]2[C@H]1C(=O)N2S(=O)(=O)O [8(a), (1S,5R)-2-[(E)-3-(2-Thienyl)acryloyl]-7-oxo-2,6-diaza-bicyclo[3.2.0]heptane-6-sulphonic acid], the IC50 (β-lactamase) is reported as 75 nM and the “MIC” value (Citrobacter freundii) is reported as 4 µg/mL.
With O=C(CCC(=O)N1CC[C@@H]2[C@H]1C(=O)N2S(=O)(=O)O)NOCc1ccco1 [Example 19, sodium salt] the IC50 (β-lactamase; [1]) was 430 nM and the “MIC” value (Citrobacter freundii) was 2 µg/mL.
With O=C(NC1CCCC1)N1CC[C@@H]2[C@H]1C(=O)N2S(=O)(=O)[O-].[Na+] [17(ac), (1S,5R)-2-Cyclopentylcarbamoyl-7-oxo-2,6-diazabicyclo[3.2.0]heptane-6-sulfonic acid sodium salt] the IC50 (β-lactamase; [1]) was 70 nM and the “MIC” value (Citrobacter freundii) was 1 µg/mL.
For Nc1ccc(/C=C/C(=O)N2CC[C@@H]3[C@H]2C(=O)N3S(=O)(=O)O)cc1 [12(a), (1S,5R)-2-[(E)-p-Aminocinnamoyl]-7-oxo-2,6-diazabicyclo[3.2.0]heptane-6-sulphonic acid], the IC50 (β-lactamase) was 105 nM and the “MIC” value (Citrobacter freundii) was 4 µg/mL.
For “(1S,5R)-2-[(2-Amino-4-thiazolyl)acetyl]-7-oxo-2,6-diazabicyclo[3.2.0]heptane-6-sulphonic acid triethylamine salt [6(o)]”, the IC50 (β-lactamase; [2]) was 350 nM and the “MIC” value (Citrobacter freundii) was 2 µg/mL.
N[C@@H](Cc1c[nH]c2ccccc12)C(=O)N1CC[C@@H]2[C@H]1C(=O)N2S(=O)(=O)O [6(h), (1S,5R)-7-Oxo-2-L-tryptophanyl-2,6-diazabicyclo[3.2.0]heptane-6-sulphonic acid] was tested, and the IC50 (β-lactamase) was 6 nM and the “MIC” value (Citrobacter freundii) was 1 µg/mL.
With “Mixture of (1S,5R)-2-(5-Amino-1H-tetrazol-1-ylacetyl) and (1S,5R)-2-(5-Amino-2H-tetrazol-2-ylacetyl)-7-oxo-2,6-diazabicyclo[3.2.0]heptane-6-sulfonic acid sodium salt (1:2) [23(k)]” the IC50 (β-lactamase; [2]) was 273 nM and the “MIC” value (Citrobacter freundii) was 2 µg/mL.
With O=C(NCc1ccccn1)N1CC[C@@H]2[C@H]1C(=O)N2S(=O)(=O)[O-].[Na+] [17(c), (1S,5R)-7-Oxo-2-[(2-pyridylmethyl)carbamoyl]-2,6-diazabicyclo[3.2.0]heptane-6-sulphonic acid sodium salt] the IC50 (β-lactamase; [1]) was 400 nM and the “MIC” value (Citrobacter freundii) was 2 µg/mL.
For N[C@@H](C(=O)N1CC[C@@H]2[C@H]1C(=O)N2S(=O)(=O)O)c1ccc(O)cc1 [6(d), (1S,5R)-2-[D-2-(p-Hydroxyphenyl)glycyl]-7-oxo-2,6-diazabicyclo[3.2.0]-heptane-6-sulphonic acid], the IC50 (β-lactamase) was 500 nM and the “MIC” value (Citrobacter freundii) was 2 µg/mL.
O=C(NCc1ccc(O)cc1)N1CC[C@@H]2[C@H]1C(=O)N2S(=O)(=O)[O-].[Na+] [17(ab), (1S,5R)-2-[4-Hydroxy-benzylcarbamoyl]-7-oxo-2,6-diazabicyclo[3.2.0]heptane-6-sulfonic acid sodium salt] was tested, and the IC50 (β-lactamase; [1]) was 194 nM and the “MIC” value (Citrobacter freundii) was 1 µg/mL.
In the case of Nc1nc(SCC(=O)N2CC[C@@H]3[C@H]2C(=O)N3S(=O)(=O)[O-])n(C(=O)OCc2ccccc2)n1.[Na+] [23(g), (1S,5R)-2-(5-Amino-2-benzyloxycarbonyl-2H-1,2,4-triazol-3-ylsulfanyl-acetyl)-7-oxo-2,6-diazabicyclo[3.2.0]heptane-6-sulfonic acid sodium salt], the IC50 (β-lactamase; [1]) is reported as 280 nM and the “MIC” value (Citrobacter freundii) is reported as 2 µg/mL.
With O=C(COn1nnc2ccccc21)N1CC[C@@H]2[C@H]1C(=O)N2S(=O)(=O)[O-].[Na+] [5(k), (1S,5R)-2-[[1H-Benzotriazol-1-yl)oxylacetyl]-7-oxo-2,6-diazabicyclo[3.2.0]-heptane-6-sulphonic acid sodium salt] the IC50 (β-lactamase; [1]) was 73 nM and the “MIC” value (Citrobacter freundii) was 2 µg/mL.
With O=C(NCCc1ccccn1)N1CC[C@@H]2[C@H]1C(=O)N2S(=O)(=O)[O-].[Na+] [17(b), (1S,5R)-7-Oxo-2-[2-(pyridin-2-yl)ethylcarbamoyl]-2,6-diazabicyclo[3.2.0]heptane-6-sulphonic acid sodium salt] the IC50 (β-lactamase; [1]) was 285 nM and the “MIC” value (Citrobacter freundii) was 2 µg/mL.
O=C(NCc1ccc(O)c(O)c1)N1CC[C@@H]2[C@H]1C(=O)N2S(=O)(=O)[O-].[Na+] [17(e), (1S,5R)-2-(3,4-Dihydroxybenzylcarbamoyl)-7-oxo-2,6-diazabicyclo[3.2.0]heptane-6-sulphonic acid sodium salt] was tested, and the IC50 (β-lactamase; [1]) was 250 nM and the “MIC” value (Citrobacter freundii) was 2 µg/mL.
